Earlier results on 2 compounds are cited in patent publication US9174980B2, “Heterocyclic compounds as inhibitors of leukotriene production” (Boehringer Ingelheim International GmbH, priority 2012, dated 2015).

Series [1] has as its system biomarkers for myocardial infarction risk. The settings on record: clinical trial; cited from earlier work.
A further series has as its system human glomerulonephritis. Particulars: clinical trial; cited from earlier work.

Consider `O=C(O)[C@@H](c1ccc(OCc2ccc3ccccc3n2)cc1)C1CCCC1` [DG-031], for which the “effect on biomarkers for myocardial infarction risk” value in series [1] is “dose-dependent suppression of several biomarkers”.
With `CC(C)(C)Sc1c(CC(C)(C)C(=O)O)n(Cc2ccc(Cl)cc2)c2ccc(OCc3ccc4ccccc4n3)cc12` [MK-591], the effect on proteinuria result in the series on human glomerulonephritis is “reduce proteinuria”.
